# Source: publication PMC4067149 (Biochemistry, 2014)
# Target: T1, DEBS AT3 (Saccharopolyspora erythraea, UniProt Q03132)
# T1 sequence (Q03132 460-880 limits assumed): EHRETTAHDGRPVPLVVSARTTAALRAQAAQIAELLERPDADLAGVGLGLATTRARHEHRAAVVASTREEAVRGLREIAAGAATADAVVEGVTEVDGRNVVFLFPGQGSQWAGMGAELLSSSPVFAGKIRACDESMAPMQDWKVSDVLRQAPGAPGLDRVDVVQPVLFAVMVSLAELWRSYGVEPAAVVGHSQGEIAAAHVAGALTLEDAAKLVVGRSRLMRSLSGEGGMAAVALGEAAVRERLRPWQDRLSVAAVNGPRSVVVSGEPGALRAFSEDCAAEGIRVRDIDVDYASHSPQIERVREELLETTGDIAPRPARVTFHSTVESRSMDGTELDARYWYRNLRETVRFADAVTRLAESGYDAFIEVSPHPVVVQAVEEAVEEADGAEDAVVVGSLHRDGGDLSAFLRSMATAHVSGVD
# Experiment: alpha-KGDH coupled fluorometric NADH assay, hydrolysis
# Type: biochemical
# Conditions: no ACP, pH 7.6, 10% glycerol
compound,measurement,value
"CC(C(=O)O)C(=O)SCCNC(=O)CCNC(=O)[C@H](O)C(C)(C)COP(=O)(O)OP(=O)(O)OC[C@H]1O[C@@H](n2cnc3c(N)ncnc32)[C@H](O)[C@@H]1OP(=O)(O)O (stereo partly shown) [MMCoA, methylmalonyl-CoA]","alpha-KGDH coupled fluorometric NADH assay, hydrolysis","DEBS AT3 showed the highest rate of hydrolysis with its natural substrate, methylmalonyl-CoA"
